Reference: US5470866A, “Method for the conversion of cephalomannine to taxol and for the preparation of n-acyl analogs of taxol” (Virginia Polytechnic Institute and State University, priority 1994, dated 1995)
In brackets after ≈: the same amount, converted by molar mass.

How the values were obtained:
[1] = system: P-388 lymphocytic leukemia cells; test: cell culture assay using P-388 lymphocytic leukemia cells (cytotoxicity of N-debenzoyl-N-acyltaxols); format: cell-based; conditions: Mus musculus, P388; P-388 cell culture; taxol reference; read-out: Absolute ED50
Description: For details of the cell culture assay, see Abbott, B. J., "Protocol 14 of Instruction 275," National Cancer Institute, National Institutes Of Health, Jan. 24, 1978. N-acyltaxol analogs are important analogs of taxol for anticancer treatment. The present invention provides a simple way of preparing such analogs from taxol or cephalomannine without removing the C-13 side-chain.
*Cytotoxicity is recorded as ED50 value relative to taxol determined
in the same assay. Absolute ED50 of taxol is approximately 0.03

[2] = in some assays; reported in literature; cited from earlier work

Row | SMILES | IC50 [1] | activity relative to taxol [2]
1 | CC(=O)O[C@H]1C(=O)[C@@]2(C)[C@H]([C@H](OC(=O)c3ccccc3)[C@]3(O)C[C@H](OC(=O)[C@H](O)[C@@H](NC(=O)c4ccccc4)c4ccccc4)C(C)=C1C3(C)C)[C@]1(OC(C)=O)CO[C@@H]1C[C@@H]2O [taxol] | ~0.03 µg/mL (≈ 0.0351 µM) | –
2 | CC(=O)O[C@@]12CO[C@@H]1C[C@H](O)[C@@]1(C)C(=O)[C@H](O)C3=C(C)[C@@H](OC(=O)[C@H](O)[C@@H](NC(=O)OC(C)(C)C)c4ccccc4)C[C@@](O)([C@@H](OC(=O)c4ccccc4)[C@H]21)C3(C)C [taxotere] | – | approximately twice as active as taxol
